In patent US12319672B2, “Alpha-D-galactopyranoside derivatives” (Idorsia Pharmaceuticals Ltd, priority 2019, dated 2025):

Legend:
[1] = biological target: human Gal-3 (hGal-3) (Homo sapiens (Human), UniProt P17931); assay: Competitive binding assay: binding of biotinylated hGal-3 to microplate-adsorbed asialofetuin (ASF); details: Activity on hGal-3; mean values of several measurements
Summary of the method: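 Compounds in DMSO dilution series competed with 300-1000 ng/mL biotinylated hGal-3 for asialofetuin adsorbed on the plate (3 h, 4° C). Streptavidin-peroxidase at 80 ng/mL (1 h, 4° C) with ABTS gave a spectrophotometric read-out, and IC50 was reported as the mean of repeat runs.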

[2] = biological target: human Gal-1 (hGal-1); assay: Competitive binding assay: binding of biotinylated hGal-1 to microplate-adsorbed asialofetuin (ASF); details: Activities on hGal-1; mean values of several measurements
Summary of the method: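 Spectrophotometric readout (streptavidin-peroxidase, ABTS) of biotinylated galectin retained on ASF-coated wells. Biotinylated hGal-1 or hGal-3, 300-1000 ng/mL, co-incubated with test compound 3 h at 4° C, then washed. Mean IC50 from repeat runs.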

Sequence of human Gal-1 (hGal-1) (P09382 2-135 limits assumed): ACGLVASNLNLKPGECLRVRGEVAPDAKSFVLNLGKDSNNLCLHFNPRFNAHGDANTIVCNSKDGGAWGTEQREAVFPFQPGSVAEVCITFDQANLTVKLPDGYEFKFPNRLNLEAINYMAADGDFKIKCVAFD
Sequence of human Gal-3 (hGal-3) (P17931 whole entry): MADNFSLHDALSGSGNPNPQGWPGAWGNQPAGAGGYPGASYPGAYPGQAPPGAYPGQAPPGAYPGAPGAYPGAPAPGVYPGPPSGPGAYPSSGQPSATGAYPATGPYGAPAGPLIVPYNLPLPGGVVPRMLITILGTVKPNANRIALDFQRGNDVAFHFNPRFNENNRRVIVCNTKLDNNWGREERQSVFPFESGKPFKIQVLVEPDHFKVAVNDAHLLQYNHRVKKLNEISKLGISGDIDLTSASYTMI

Structure (SMILES)	IC50 [1]	IC50 [2]
O=C(O)[C@H]1CC[C@](O)(c2cc(C[C@H]3O[C@H](CO)[C@H](O)[C@H](n4cc(-c5cc(F)c(F)c(F)c5)nn4)[C@H]3O)no2)CC1 [Example 2.11, (1S,4s)-4-(3-(((2R,3R,4R,5R,6R)-3,5-dihydroxy-6-(hydroxymethyl)-4-(4-(3,4,5-trifluorophenyl)-1H-1,2,3-triazol-1-yl)tetrahydro-2H-pyran-2-yl)methyl)isoxazol-5-yl)-4-hydroxycyclohexane-1-carboxylic acid]	2540 nM	13700 nM
O=C1CCC(c2cc(C[C@H]3O[C@H](CO)[C@H](O)[C@H](n4cc(-c5cc(F)c(F)c(F)c5)nn4)[C@H]3O)no2)CC1 [Example 2.12, 4-(3-(((2R,3R,4R,5R,6R)-3,5-dihydroxy-6-(hydroxymethyl)-4-(4-(3,4,5-trifluorophenyl)-1H-1,2,3-triazol-1-yl)tetrahydro-2H-pyran-2-yl)methyl)isoxazol-5-yl)cyclohexan-1-one]	190 nM	3650 nM
OC[C@H]1O[C@H](Cc2cc(C3CCC(O)CC3)on2)[C@H](O)[C@@H](n2cc(-c3cc(F)c(F)c(F)c3)nn2)[C@H]1O (stereo partly drawn) [Example 2.13, (2R,3R,4R,5R,6R)-2-((5-(4-hydroxycyclohexyl)isoxazol-3-yl)methyl)-6-(hydroxymethyl)-4-(4-(3,4,5-trifluorophenyl)-1H-1,2,3-triazol-1-yl)tetrahydro-2H-pyran-3,5-diol]	210 nM	1990 nM
OC[C@H]1O[C@H](Cc2cc(C3CCC(O)CC3)on2)[C@H](O)[C@@H](n2cc(-c3cc(F)c(F)c(F)c3)nn2)[C@H]1O (stereo partly drawn) [Example 2.14, (2R,3R,4R,5R,6R)-2-((5-((1r,4r)-4-hydroxycyclohexyl)isoxazol-3-yl)methyl)-6-(hydroxymethyl)-4-(4-(3,4,5-trifluorophenyl)-1H-1,2,3-triazol-1-yl)tetrahydro-2H-pyran-3,5-diol]	190 nM	4580 nM
CCC(=O)O[C@@H]1[C@@H](n2cc(-c3cc(F)c(F)c(F)c3)nn2)[C@@H](O)[C@@H](CO)O[C@@H]1Cc1cc(C2CCN(C(=O)OC(C)(C)C)CC2)on1 [Example 2.15, tert-butyl 4-(3-(((2R,3R,4S,5R,6R)-5-hydroxy-6-(hydroxymethyl)-3-(propionyloxy)-4-(4-(3,4,5-trifluorophenyl)-1H-1,2,3-triazol-1-yl)tetrahydro-2H-pyran-2-yl)methyl)isoxazol-5-yl)piperidine-1-carboxylate]	95 nM	2140 nM
CCC(=O)O[C@@H]1[C@@H](n2cc(-c3cc(F)c(F)c(F)c3)nn2)[C@@H](O)[C@@H](CO)O[C@@H]1Cc1cc(C2CCNCC2)on1 [Example 2.16, (2R,3R,4S,5R,6R)-5-hydroxy-6-(hydroxymethyl)-2-((5-(piperidin-4-yl)isoxazol-3-yl)methyl)-4-(4-(3,4,5-trifluorophenyl)-1H-1,2,3-triazol-1-yl)tetrahydro-2H-pyran-3-yl propionate]	160 nM	11600 nM
CCO[C@@H]1[C@@H](n2cc(-c3cc(F)c(F)c(F)c3)nn2)[C@@H](O)[C@@H](CO)O[C@@H]1Cc1cc(C2CCN(C(=O)OC(C)(C)C)CC2)on1 [Example 2.17, tert-butyl 4-(3-(((2R,3R,4S,5R,6R)-3-ethoxy-5-hydroxy-6-(hydroxymethyl)-4-(4-(3,4,5-trifluorophenyl)-1H-1,2,3-triazol-1-yl)tetrahydro-2H-pyran-2-yl)methyl)isoxazol-5-yl)piperidine-1-carboxylate]	130 nM	780 nM
CCC(=O)O[C@@H]1[C@@H](n2cc(-c3cc(F)c(F)c(F)c3)nn2)[C@@H](O)[C@@H](CO)O[C@@H]1Cc1cc(C2CCNCC2)on1 [Example 2.18, (2R,3R,4S,5R,6R)-5-hydroxy-6-(hydroxymethyl)-2-((5-(piperidin-4-yl)isoxazol-3-yl)methyl)-4-(4-(3,4,5-trifluorophenyl)-1H-1,2,3-triazol-1-yl)tetrahydro-2H-pyran-3-yl propionate]	220 nM	6300 nM
CCCO[C@@H]1[C@@H](n2cc(-c3cc(F)c(F)c(F)c3)nn2)[C@@H](O)[C@@H](CO)O[C@@H]1Cc1cc(C2CCN(C(=O)OC(C)(C)C)CC2)on1 [Example 2.19, tert-butyl 4-(3-(((2R,3R,4S,5R,6R)-5-hydroxy-6-(hydroxymethyl)-3-propoxy-4-(4-(3,4,5-trifluorophenyl)-1H-1,2,3-triazol-1-yl)tetrahydro-2H-pyran-2-yl)methyl)isoxazol-5-yl)piperidine-1-carboxylate]	170 nM	1050 nM
CCCCO[C@@H]1[C@@H](n2cc(-c3cc(F)c(F)c(F)c3)nn2)[C@@H](O)[C@@H](CO)O[C@@H]1Cc1cc(C2CCN(C(=O)OC(C)(C)C)CC2)on1 [Example 2.20, tert-butyl 4-(3-(((2R,3R,4S,5R,6R)-3-butoxy-5-hydroxy-6-(hydroxymethyl)-4-(4-(3,4,5-trifluorophenyl)-1H-1,2,3-triazol-1-yl)tetrahydro-2H-pyran-2-yl)methyl)isoxazol-5-yl)piperidine-1-carboxylate]	390 nM	2030 nM
CC(C)(C)OC(=O)N1CCC(c2cc(C[C@H]3O[C@H](CO)[C@H](O)[C@H](n4cc(-c5cc(F)c(F)c(F)c5)nn4)[C@H]3OCC(=O)O)no2)CC1 [Example 2.21, 2-(((2R,3R,4S,5R,6R)-2-((5-(1-(tert-butoxycarbonyl)piperidin-4-yl)isoxazol-3-yl)methyl)-5-hydroxy-6-(hydroxymethyl)-4-(4-(3,4,5-trifluorophenyl)-1H-1,2,3-triazol-1-yl)tetrahydro-2H-pyran-3-yl)oxy)acetic acid]	22 nM	690 nM
CC(C)C(=O)O[C@@H]1[C@@H](n2cc(-c3cc(F)c(F)c(F)c3)nn2)[C@@H](O)[C@@H](CO)O[C@@H]1Cc1cc(C2CCN(C(=O)OC(C)(C)C)CC2)on1 [Example 2.22, tert-butyl 4-(3-(((2R,3R,4S,5R,6R)-5-hydroxy-6-(hydroxymethyl)-3-(isobutyryloxy)-4-(4-(3,4,5-trifluorophenyl)-1H-1,2,3-triazol-1-yl)tetrahydro-2H-pyran-2-yl)methyl)isoxazol-5-yl)piperidine-1-carboxylate]	200 nM	27300 nM
CC(C)O[C@@H]1[C@@H](n2cc(-c3cc(F)c(F)c(F)c3)nn2)[C@@H](O)[C@@H](CO)O[C@@H]1Cc1cc(C2CCN(C(=O)OC(C)(C)C)CC2)on1 [Example 2.23, tert-butyl 4-(3-(((2R,3R,4S,5R,6R)-5-hydroxy-6-(hydroxymethyl)-3-isopropoxy-4-(4-(3,4,5-trifluorophenyl)-1H-1,2,3-triazol-1-yl)tetrahydro-2H-pyran-2-yl)methyl)isoxazol-5-yl)piperidine-1-carboxylate]	220 nM	2050 nM
CC(C)O[C@@H]1[C@@H](n2cc(-c3cc(F)c(F)c(F)c3)nn2)[C@@H](O)[C@@H](CO)O[C@@H]1Cc1cc(C2CCNCC2)on1 [Example 2.24, (2R,3R,4S,5R,6R)-2-(hydroxymethyl)-5-isopropoxy-6-((5-(piperidin-4-yl)isoxazol-3-yl)methyl)-4-(4-(3,4,5-trifluorophenyl)-1H-1,2,3-triazol-1-yl)tetrahydro-2H-pyran-3-ol]	990 nM	9610 nM
OC[C@H]1O[C@H](Cc2cc(C3CCNCC3)on2)[C@H](OCC(F)F)[C@@H](n2cc(-c3cc(F)c(F)c(F)c3)nn2)[C@H]1O [Example 2.26, (2R,3R,4S,5R,6R)-5-(2,2-difluoroethoxy)-2-(hydroxymethyl)-6-((5-(piperidin-4-yl)isoxazol-3-yl)methyl)-4-(4-(3,4,5-trifluorophenyl)-1H-1,2,3-triazol-1-yl)tetrahydro-2H-pyran-3-ol]	200 nM	4490 nM
Cc1ccc(-c2cn([C@H]3[C@@H](O)[C@@H](CO)O[C@H](Cc4cc(C(C)(C)C)on4)[C@@H]3OCC(=O)O)nn2)c(F)c1F [Example 2.27, 2-(((2R,3R,4S,5R,6R)-2-((5-(tert-butyl)isoxazol-3-yl)methyl)-4-(4-(2,3-difluoro-4-methylphenyl)-1H-1,2,3-triazol-1-yl)-5-hydroxy-6-(hydroxymethyl)tetrahydro-2H-pyran-3-yl)oxy)acetic acid]	24 nM	5280 nM
CC(C)(C)c1cc(C[C@H]2O[C@H](CO)[C@H](O)[C@H](n3cc(-c4cc(F)c(F)c(F)c4)nn3)[C@H]2OCC(=O)N2CCOCC2)no1 [Example 2.28, 2-(((2R,3R,4S,5R,6R)-2-((5-(tert-butyl)isoxazol-3-yl)methyl)-5-hydroxy-6-(hydroxymethyl)-4-(4-(3,4,5-trifluorophenyl)-1H-1,2,3-triazol-1-yl)tetrahydro-2H-pyran-3-yl)oxy)-1-morpholinoethan-1-one]	110 nM	2180 nM
CO[C@@H]1[C@@H](n2cc(-c3cc(F)c(F)c(F)c3)nn2)[C@@H](O)[C@@H](CO)O[C@@H]1Cc1cc(C2CCC(NC(=O)[C@@H](NC(=O)OC(C)(C)C)C(C)C)CC2)no1 (stereo partly drawn) [Example 2.29, tert-butyl ((S)-1-(((1R,4S)-4-(5-(((2R,3R,4S,5R,6R)-5-hydroxy-6-(hydroxymethyl)-3-methoxy-4-(4-(3,4,5-trifluorophenyl)-1H-1,2,3-triazol-1-yl)tetrahydro-2H-pyran-2-yl)methyl)isoxazol-3-yl)cyclohexyl)amino)-3-methyl-1-oxobutan-2-yl)carbamate]	17 nM	2330 nM
CO[C@@H]1[C@@H](n2cc(-c3cc(F)c(F)c(F)c3)nn2)[C@@H](O)[C@@H](CO)O[C@@H]1Cc1cc(C2CCC(NC(=O)[C@@H](N)C(C)C)CC2)no1 (stereo partly drawn) [Example 2.30, (S)-2-amino-N-((1R,4S)-4-(5-(((2R,3R,4S,5R,6R)-5-hydroxy-6-(hydroxymethyl)-3-methoxy-4-(4-(3,4,5-trifluorophenyl)-1H-1,2,3-triazol-1-yl)tetrahydro-2H-pyran-2-yl)methyl)isoxazol-3-yl)cyclohexyl)-3-methylbutanamide]	72 nM	1980 nM
